Experimental data from patent US20100048660A1, “TREATMENT OF DUCHENNE MUSCULAR DYSTROPHY” (priority 2006, published 2010).

The compounds below were run on Utrophin A promoter linked to a luciferase reporter gene (H2K/mdx/Utro A reporter cell line) (assay: Luciferase reporter assay (murine H2K cells)). Details: Mus musculus; Table 1; murine H2K mdx myoblasts, compound final concentration 10 μM, 48 hrs; read-out: Activity (luciferase reporter assay, relative to control).
Format: cell-based
Description: 1. Luciferase Reporter Assay (Murine H2K Cells)
The cell line used for the screen is an immortalized mdx mouse H2K cell line that has been stably transfected with a plasmid containing ≈5 kb fragment of the Utrophin A promoter including the first untranslated exon linked to a luciferase reporter gene (see FIG. 1).
Under conditions of low temperature and interferon containing media, the cells remain as myoblasts. These are plated into 96 well plates and cultured in the presence of compound for three days. The level of luciferase is then determined by cell lysis and reading of the light output from the expressed luciferase gene utilising a plate luminometer.
The H2K/mdx/Utro A reporter cell line was passaged twice a week until ≦30% confluent. The cells were grown at 33° C. in the presence of 10% CO2
The H2K/mdx/Utro A reporter cell line cells were plated out into 96 well plates (Falcon 353296, white opaque) at a density of approximately 5000 cells/well in 190 μl normal growth medium. The plates were then incubated at 33° C. in the presence of 10% CO2 for 24 hrs.
Compounds were dosed by adding 10 μl of diluted compound to each well giving a final concentration of 10 μM. The plates were then incubated for a further 48 hrs
Cells were then lysed in situ following the manufacture's protocols (Promega Steady-Glo Luciferase Assay System (E2520). Then counted for 10 seconds using a plate luminometer (Victorl420).

Compared with Cc1cc2nn(-c3ccc(Cl)cc3)nc2cc1NC(=O)c1ccncc1 [Example 2, N-(2-(4-chlorophenyl)-6-methyl-2H-benzo[d][1,2,3]triazol-5-yl)isonicotinamide], Cc1cc2nn(-c3ccc(Cl)cc3)nc2cc1NC(=O)c1cccnc1 [Example 1, N-(2-(4-chlorophenyl)-6-methyl-2H-benzo[d][1,2,3]triazol-5-yl)nicotinamide] is higher in activity at 10 µM: 201 to 300% for the first, 301 to 400% for the second.

Compared with CCS(=O)(=O)c1ccc2nn(-c3ccc(Cl)cc3)nc2c1 [Example 52, 2-(4′-chlorophenyl)-5-(ethylsulfonyl)-benzotriazole], CS(=O)(=O)c1ccc2nn(-c3ccc(Cl)cc3)nc2c1 [Example 49, 2-(4-chlorophenyl)-5-(methylsulfonyl)-2H-benzo[d][1,2,3]triazole] is lower in activity at 10 µM: greater than 401% for the first, less than 200% for the second.

First: Cc1cc2nn(-c3ccc(Cl)cc3)nc2cc1NC(=O)c1ccco1 [Example 11, N-(2-(4-chlorophenyl)-6-methyl-2H-benzo[d][1,2,3]triazol-5-yl)furan-2-carboxamide]
Second: CCN(CC)c1ccc(-n2nc3cc(C)c(NC(=O)c4ccco4)cc3n2)cc1 [Example 18, N-(2-(4-(diethylamino)phenyl)-6-methyl-2H-benzo[d][1,2,3]triazol-5-yl)furan-2-carboxamide]
The activity at 10 µM of the first is higher: 201 to 300% for the first, less than 200% for the second.

Compared with CCN(CC)c1ccc(-n2nc3ccc(NC(=O)c4ccccc4)cc3n2)cc1 [Example 29, N-(2-(4-(diethylamino)phenyl)-2H-benzo[d][1,2,3]triazol-5-yl)benzamide], CCN(CC)c1ccc(-n2nc3ccc(NC(=O)c4cccnc4)cc3n2)cc1 [Example 20, N-(2-(4-(diethylamino)phenyl)-2H-benzo[d][1,2,3]triazol-5-yl)nicotinamide] is higher in activity at 10 µM: less than 200% for the first, 201 to 300% for the second.

CCCC(=O)Nc1ccc2nn(-c3ccc(N(CC)CC)cc3)nc2c1 [Example 24, N-(2-(4-(diethylamino)phenyl)-2H-benzo[d][1,2,3]triazol-5-yl)butyramide] and CCC(=O)Nc1ccc2nn(-c3ccc(N(CC)CC)cc3)nc2c1 [Example 23, N-(2-(4-(diethylamino)phenyl)-2H-benzo[d][1,2,3]triazol-5-yl)propionamide] cannot be ordered by activity at 10 µM: less than 200% for the first, less than 200% for the second.

CCCC(=O)Nc1cc2nn(-c3ccc(N(CC)CC)cc3)nc2cc1C [Example 15, N-(2-(4-(diethylamino)phenyl)-6-methyl-2H-benzo[d][1,2,3]triazol-5-yl)butyramide] and CCN(CC)c1ccc(-n2nc3cc(C)c(NC(=O)C(C)C)cc3n2)cc1 [Example 17, N-(2-(4-(diethylamino)phenyl)-6-methyl-2H-benzo[d][1,2,3]triazol-5-yl)isobutyramide] cannot be ordered by activity at 10 µM: less than 200% for the first, less than 200% for the second.

CS(=O)(=O)c1ccc2nn(-c3ccc(Cl)c(Cl)c3)nc2c1 [Example 50, 2-(3,4-dichlorophenyl)-5-(methylsulfonyl)-2H-benzo[d][1,2,3]triazole] and CS(=O)(=O)c1ccc2cn(-c3ccc(Cl)cc3)nc2c1 [Example 44, 2-(4-chlorophenyl)-6-(methylsulfonyl)-2H-indazole] fall in the same range of activity at 10 µM: 201 to 300% for the first, 201 to 300% for the second.

CC(C)C(=O)Nc1ccc2nn(-c3ccc(Cl)cc3)nc2c1 [Example 37, N-(2-(4-chlorophenyl)-2H-benzo[d][1,2,3]triazol-5-yl)isobutyramide] and CC(=O)Nc1ccc2nn(-c3ccc(Cl)cc3)nc2c1 [Example 39, N-(2-(4-chlorophenyl)-2H-benzo[d][1,2,3]triazol-5-yl)acetamide] cannot be ordered by activity at 10 µM: greater than 401% for the first, greater than 401% for the second.

First: CCC(=O)Nc1ccc2nn(-c3ccc(Cl)cc3)nc2c1 [Example 35, N-(2-(4-chlorophenyl)-2H-benzo[d][1,2,3]triazol-5-yl)propionamide]
Second: CCCC(=O)Nc1ccc2nn(-c3ccc(Cl)cc3)nc2c1 [Example 36, N-(2-(4-chlorophenyl)-2H-benzo[d][1,2,3]triazol-5-yl)butyramide]
The activity at 10 µM of the first is higher: greater than 401% for the first, 301 to 400% for the second.

CCN(CC)c1ccc(-n2nc3ccc(NC(=O)c4ccco4)cc3n2)cc1 [Example 27, N-(2-(4-(diethylamino)phenyl)-2H-benzo[d][1,2,3]triazol-5-yl)furan-2-carboxamide] and CCN(CC)c1ccc(-n2nc3ccc(NC(=O)c4cccs4)cc3n2)cc1 [Example 28, N-(2-(4-(diethylamino)phenyl)-2H-benzo[d][1,2,3]triazol-5-yl)thiophene-2-carboxamide] cannot be ordered by activity at 10 µM: less than 200% for the first, less than 200% for the second.

COc1ccccc1C(=O)Nc1cc2nn(-c3ccc(Cl)cc3)nc2cc1C [Example 5, N-(2-(4-chlorophenyl)-6-methyl-2H-benzo[d][1,2,3]triazol-5-yl)-2-methoxybenzamide] and Cc1cc2nn(-c3ccc(Cl)cc3)nc2cc1NC(=O)c1ccccc1 [Example 3, N-(2-(4-chlorophenyl)-6-methyl-2H-benzo[d][1,2,3]triazol-5-yl)benzamide] cannot be ordered by activity at 10 µM: less than 200% for the first, less than 200% for the second.

First: CN(C)c1ccc(-n2nc3ccc(N)cc3n2)cc1 [Example 41, 2-(4-(dimethylamino)phenyl)-2H-benzo[d][1,2,3]triazol-5-amine]
Second: Nc1ccc2nn(-c3ccc(Cl)cc3)nc2c1 [Example 38, 2-(4-chlorophenyl)-2H-benzo[d][1,2,3]triazol-5-amine]
The activity at 10 µM of the first is higher: 301 to 400% for the first, less than 200% for the second.

Compared with CS(=O)(=O)c1ccc2nn(-c3ccc4ccccc4c3)[n+]([O-])c2c1 [Example 54, 6-(Methylsulfonyl)-2-(naphthalen-2-yl)-2H-benzo[d][1,2,3]triazole 1-oxide], CS(=O)(=O)c1ccc2nn(-c3ccc(Cl)cc3)[n+]([O-])c2c1 [Example 47, 2-(4-chlorophenyl)-6-(methylsulfonyl)-2H-benzo[d][1,2,3]triazole 1-oxide] is lower in activity at 10 µM: 201 to 300% for the first, less than 200% for the second.

Compared with Cc1cc2nn(-c3ccc(Cl)cc3)nc2cc1N [Example 43, 2-(4-chlorophenyl)-6-methyl-2H-benzo[d][1,2,3]triazol-5-amine], CCC(=O)Nc1cc2nn(-c3ccc(Cl)cc3)nc2cc1C [Example 7, N-(2-(4-chlorophenyl)-6-methyl-2H-benzo[d][1,2,3]triazol-5-yl)propionamide] is lower in activity at 10 µM: greater than 401% for the first, less than 200% for the second.

CCN(CC)c1ccc(-n2nc3ccc(NC(=O)c4ccc(N(C)C)cc4)cc3n2)cc1 [Example 33, N-(2-(4-(diethylamino)phenyl)-2H-benzo[d][1,2,3]triazol-5-yl)-4-(dimethylamino)benzamide] and CCN(CC)c1ccc(-n2nc3ccc(NC(=O)c4ccccc4OC)cc3n2)cc1 [Example 31, N-(2-(4-(diethylamino)phenyl)-2H-benzo[d][1,2,3]triazol-5-yl)-2-methoxybenzamide] cannot be ordered by activity at 10 µM: less than 200% for the first, less than 200% for the second.

First: CCN(CC)c1ccc(-n2nc3cc(C)c(NC(=O)c4ccncc4)cc3n2)cc1 [Example 13, N-(2-(4-(diethylamino)phenyl)-6-methyl-2H-benzo[d][1,2,3]triazol-5-yl)isonicotinamide]
Second: CCN(CC)c1ccc(-n2nc3ccc(NC(C)=O)cc3n2)cc1 [Example 22, N-(2-(4-(diethylamino)phenyl)-2H-benzo[d][1,2,3]triazol-5-yl)acetamide]
The activity at 10 µM of the first is higher: 301 to 400% for the first, 201 to 300% for the second.

Cc1cc2nn(-c3ccc(N4CCOCC4)cc3)nc2cc1N [Example 34, 6-methyl-2-(4-morpholinophenyl)-2H-benzo[d][1,2,3]triazol-5-amine] and CCCC(=O)Nc1cc2nn(-c3ccc(Cl)cc3)nc2cc1C [Example 8, N-(2-(4-chlorophenyl)-6-methyl-2H-benzo[d][1,2,3]triazol-5-yl)butyramide] fall in the same range of activity at 10 µM: 201 to 300% for the first, 201 to 300% for the second.

Compared with COc1ccc(C(=O)Nc2cc3nn(-c4ccc(Cl)cc4)nc3cc2C)cc1 [Example 4, N-(2-(4-chlorophenyl)-6-methyl-2H-benzo[d][1,2,3]triazol-5-yl)-4-methoxybenzamide], CCN(CC)c1ccc(-n2nc3ccc(NC(=O)C(C)C)cc3n2)cc1 [Example 26, N-(2-(4-(diethylamino)phenyl)-2H-benzo[d][1,2,3]triazol-5-yl)isobutyramide] is lower in activity at 10 µM: 201 to 300% for the first, less than 200% for the second.

In the case of O=[N+]([O-])c1ccc2cn(-c3ccc(Cl)cc3)nc2c1 [Example 45, 2-(4-chlorophenyl)-6-nitro-2H-indazole], the activity at 10 µM is reported as less than 200%.

Same assay, conditions: Mus musculus; Table 2; murine H2K mdx myoblasts, compound final concentration 10 μM, 48 hrs; read-out: Activity (luciferase reporter assay, relative to control)

Cc1ccc(-n2nc3cc(C)c(N)cc3n2)cc1 [Example 65, 6-methyl-2-p-tolyl-2H-benzo[d][1,2,3]triazol-5-amine] and CCOc1ccc(-n2nc3cc(C)c(N)cc3n2)cc1 [Example 64, 2-(4-ethoxyphenyl)-6-methyl-2H-benzo[d][1,2,3]triazol-5-amine] fall in the same range of activity at 10 µM: 201 to 300% for the first, 201 to 300% for the second.

First: CC(=O)Nc1cc2nn(-c3ccccc3)nc2cc1C [Example 67, N-(6-methyl-2-phenyl-2H-benzo[d][1,2,3]triazol-5-yl)acetamide]
Second: COc1ccc(-n2nc3cc(C)c(NC(C)=O)cc3n2)cc1 [Example 66, N-(2-(4-methoxyphenyl)-6-methyl-2H-benzo[d][1,2,3]triazol-5-yl)acetamide]
The activity at 10 µM of the first is higher: 201 to 300% for the first, less than 200% for the second.

Cc1ccc(-n2nc3ccc(N)cc3n2)cc1C [Example 63, 2-(3,4-dimethylphenyl)-2H-benzo[d][1,2,3]triazol-5-amine] gave an activity at 10 µM of less than 200%.
